Results reported in patent US20250210145A1, “METHOD FOR DETERMINING THE RESISTANCE OF A MICROORGANISM TO AN ANTIMICROBIAL AGENT” (Commissariat à l'Energie Atomique et aux Energies …, priority 2023, published 2025).

Assays:
[1] = system: Staphylococcus Saprophyticus strains SS91, SS96; assay: FTIR heavy-water labeling level (metabolism) versus antibiotic concentration, strains not used during training; type: cell-based; conditions: FIG. 5; each of strains SS91 and SS96, above a strain-specific antibiotic concentration (value not given)
Source text: The x-axis corresponds to the antibiotic concentration (Gentamicin). The y-axis corresponds to a labeling level.

[2] = system: Escherichia coli strain ATCC25922 ("EC10"); assay: FTIR heavy-water labeling level (metabolism) versus antibiotic concentration, strain EC10; type: cell-based; conditions: FIG. 4C, amoxicillin 1-64 μg/mL, two hours incubation, Mueller-Hinton medium with 50% v/v heavy water
Protocol: (§1) Once the LDA classifier had been parameterized, it was used in a test phase on Escherichia coli cultures.
(§2) An overnight pre-culture was performed to synchronize the metabolic states of the bacterial populations. Test samples were prepared using different concentrations of amoxicillin (64, 32, 16, 8, 4, 2 and 1 μg/mL), and a culture of each strain was prepared in 2 ml of Mueller-Hinton medium with 50% v/v heavy water and antibiotic. A control sample without antibiotic was prepared. The test samples were then incubated for two hours. After incubation, the test samples were centrifuged and re-suspended in 30 μL of water, then a 5 μl drop was placed on a calcium fluoride slide. The slide was dried by exposure to a hot, dry atmosphere. On each test sample, 64 spectra are acquired using an FTIR microscope at 15× magnification, in order to eliminate potential variations in the sample's thickness of texture.
(§3) This provided test spectra corresponding to the exposure of bacterial strains to different antibiotic concentrations. The algorithm parameterized during the training phase enabled measuring a labeling level for each sample, which is considered representative of metabolic activity.

[3] = system: Escherichia coli strain ATCC35218 ("EC207"); conditions: cited from earlier work
[4] = system: Escherichia coli strain ATCC25922 ("EC10"); conditions: cited from earlier work
[5] = system: Escherichia coli strain ATCC35218 ("EC207"); assay: FTIR heavy-water labeling level (metabolism) versus antibiotic concentration, strain EC207; type: cell-based; conditions: FIG. 4C, amoxicillin 1-64 μg/mL, two hours incubation, Mueller-Hinton medium with 50% v/v heavy water
Protocol: as §1, §2, §3

Row | Molecule | labeling level as a function of antibiotic concentration [1] | concentration above which the strain is sensitive (labeling level decreases) [2] [µg/mL] | sensitivity to the antibiotic (reference strain status) [3] | sensitivity to the antibiotic (reference strain status) [4] | concentration above which growth inhibition is exhibited ([4]; reference strain ATCC25922 (EC10)) [µg/mL] | resistance judged from labeling level (metabolism) [5]
1 | Gentamicin | labeling level decreases | – | – | – | – | –
2 | CC1(C)S[C@@H]2[C@H](NC(=O)[C@H](N)c3ccc(O)cc3)C(=O)N2[C@H]1C(=O)O [amoxicillin] | – | ~10 | resistant | sensitive | 4 | resistant to all the antibiotic concentrations used
